{"source": "patent US20210189367A1", "about": "“Inducible Cell Receptors for Cell-Based Therapeutics” (Senti Biosciences, Inc., priority 2017, published 2021)", "type_in_all_cases": "cell-based, human", "key": {"[1]": {"system": "Jurkat cells transduced with an anti-Her2 CAR fused to a self-excising degron", "assay": "T cell activation (CD69) of anti-Her2 CAR-degron Jurkat cells on recombinant Her2", "conditions": "1 μM ASV 2 days, then recombinant Her2-coated plates overnight, even at high Her2 (10 μg/mL)", "procedure": "The function of an anti-Her2 CAR fused to a self-excising degron in T cells was tested in vitro. Jurkat cells (an immortalized human T cell line) were transduced with an anti-Her2 CAR fused to a self-excising degron (SEQ ID NO: 4). These cells were incubated in the presence (1 μM ASV) or absence of the ASV protease inhibitor for 2 days, then subsequently placed on tissue culture plates coated with recombinant Her2 (low=2.5 μg/mL; high=10 μg/mL). Following overnight incubation, the ant-Her2 CAR T cells were stained with an anti-CD69 fluorescent antibody, and the mean fluorescence of each cell population was measured using flow cytometry. CD69 was used as a T-cell activation marker."}, "CAR [2]": {"system": "CAR", "assay": "Switchable expression of CAR by application of ASV (YFP, flow cytometry), CAR T cells", "excerpt": "The first fusion protein (left) comprises an extracellular protein binding domain fused to a myc tag and three intracellular signaling domains fused to YFP. The second fusion protein (middle; “CAR-SMASh”) further comprises a Hepatitis C (HCV) NS4A-NS4B protease cleavage site, a HCV NS3 protease domain, and a degron derived from the HCV NS4A protein. The CAR-SMASh, therefore, expresses CAR, but induces degradation of CAR in the presence of ASV. The third fusion protein (right; “CAR-SMASh[GGS]”) is a CAR-SMASh mutant lacking the NS4 degron.\n(§1) Human total pan T cells were isolated from PBMC donors by magnetic-assisted cell sorting using StemCell Technologies Total Pan T Cell Isolation Kit and stimulated with anti-CD3/28 Dynabeads at a 1:3 ratio (T cells:Dynabeads), 10^6 T cells with 3×10^Dynabeads, in CTS OpTmizer media with CTS Serum Replacement and recombinant human IL-2 [100 U/ml]. One day later T cells were then transduced with lentivirus carrying a CAR comprising anti-HER2 or anti-CD19 scFv. Specifically, lentivirus encoding CAR, CAR-SMASh and CAR-SMASh[GGS] comprising anti-HER2 or anti-CD19 scFv was transduced. CAR-T cells were then split into a larger well with fresh media added. On Day 5 CAR-T cells were exposed to ASV [2 μM] and then analyzed by flow cytometry to measure YFP expression at various time points, including on day 6 (FIG. 13) and on day 7 (FIG. 14)."}, "CAR [3]": {"system": "CAR", "assay": "Switchable expression of CAR by removal of ASV (YFP, flow cytometry), CAR T cells", "conditions": "T cells transduced with CAR (FIG. 16A)", "excerpt": "as §1, with “3×10^6 Dynabeads,” for “3×10^Dynabeads,”, “for 2 days, washed 2 times, then re-cultured in media without ASV” for “[2 μM]”, “were acquired” for “analyzed”, “cytometry” for “cytometry to measure YFP expression”, “points” for “points, including on day 6 (FIG. 13)”, “YFP expression was measured.” for “on day 7 (FIG. 14).”"}, "[4]": {"system": "CAR-T cells co-cultured with target HER2+ SKOV3 tumor cells", "assay": "Cytokine production by CAR-T cells co-cultured with target tumor cells, Luminex multi-cytokine array", "conditions": "CAR-SMASh T cells, ASV 2 μM, E:T 10:1", "excerpt": "Human […] pan T cells were isolated from PBMC donors by magnetic-assisted cell sorting using StemCell Technologies Total Pan T Cell Isolation Kit and stimulated with anti-CD3/28 Dynabeads at a 1:3 ratio (T cells:Dynabeads), 10^6 T cells with 3×10^6 Dynabeads, in CTS OpTmizer media with CTS Serum Replacement and recombinant human IL-2 [100 U/ml]. 1 day later T cells were then transduced with lentivirus carrying anti-HER2 scFv CAR-SMASh designs. CAR-T cells were then split into a larger well with fresh media added. On Day 6 CAR-T cells were treated with ASV [2 μM] for 2 days. On Day 8 CAR-T cells were washed, replenished with ASV, and co-cultured with target HER2+ SKOV3 tumor cells at (10:1) effector-to-target (E:T) ratio, incubated overnight, and supernatants collected the next day. Cytokines were measured by Luminex multi-cytokine array using a Luminex MagPix (Sigma Millipore)."}}, "data": [{"smiles": "C=C[C@@H]1C[C@]1(NC(=O)[C@@H]1C[C@@H](Oc2ncc(OC)c3ccc(Cl)cc23)CN1C(=O)[C@@H](NC(=O)OC(C)(C)C)C(C)(C)C)C(=O)NS(=O)(=O)C1CC1", "note": "[ASV, Asunaprevir]", "values": [{"measurement": "cells activated (CD69)", "setting": "[1]", "value": "less than 25%"}, {"measurement": "CAR expression (percentage YFP+ and YFP MFI)", "setting": "CAR [2]; CAR T cells, ASV 2 μM, day 6 (FIG. 13)", "value": "no effect"}, {"measurement": "CAR expression (percentage YFP+) over time after addition of ASV", "setting": "CAR [2]; T cells expressing CAR (FIG. 15A)", "value": "no effect"}, {"measurement": "reversible effects on CAR expression (percentage YFP+) after removal of ASV", "setting": "CAR [3]", "value": "not observed"}, {"measurement": "IFN-gamma production", "setting": "[4]; overnight (FIG. 19A)", "value": "decreased production"}, {"measurement": "IL-lalpha production", "setting": "[4]; overnight (FIG. 19B)", "value": "decreased production"}, {"measurement": "IL-6 production", "setting": "[4]; overnight (FIG. 19C)", "value": "decreased production"}]}]}
